# Experimental data taken from US8911805B2, “Calcium preparation and method of production thereof” (Toyo Suisan Kaisha, Ltd., priority 2010, dated 2014).
# Tested on: bone loss in low-Ca fed rats
# Test: Oral study of solid preparation of calcium in rats (dry weight of tibia)
# Format: in vivo, Crl:CD (SD) rats
# Conditions: compared to the low calcium fed group; feed Ca content 0.5%, three weeks
# Experimental: A test for the improvement, effect of the solid preparation or calcium of the present invention on bone loss in low-Ca fed rats was performed using 5-week-old male Crl:CD (SD) rats. AIN-93M was administered to 4-week old rats. After habituation for one week, various kinds of feeds were administered to the rats for three weeks. As a basic feed, a feed obtained by modifying the content of calcium in AIN-93M to 0.2% (normal feed: 0.5%) was used.
# The test groups included the following six groups (one group: eight rats): a low calcium fed group to which a basic feed was administered; a group to which a basic feed containing calcium carbonate at a Ca content of 0.5% was administered; a group to which a basic feed containing freeze-dried powder of a C100P100Ca200K225 solution after aging (at 37° C. for two days) at a Ca content of 0.5% was administered; a group to which a basic feed containing freeze-dried powder of a C200P100Ca200K550 solution after aging (at 37° C. for one day) a Ca content of 0.5% was administered; a group to which a basic feed containing freeze-dried powder of a C100P100Ca200K225 solution before aging at a Ca content of 0.5% was administered; and a group to which basic feed containing calcium lactate at a Ca content of 0.5% was administered.
# After three weeks, the dry weight of the extracted tibia was measured. […]
row,SMILES,bone weight (dry weight of the extracted tibia)
1,O=C([O-])[O-].[Ca+2] [calcium carbonate],significantly increased
2,CC(O)C(=O)[O-].CC(O)C(=O)[O-].[Ca+2] (centres unmarked) [calcium lactate],significantly increased
